Assay results taken from patent publication US20070134193A1, “Cosmetic and/or pharmaceutical preparations” (priority 2001, published 2007).

Experiments:
human keratinocytes = assay: Cell protecting effect against UVB on human keratinocytes cultivated in vitro (number of keratinocytes, released LDH); assay type: cell-based; details: UVB 50 mJ/cm^2, 0.03%
Method: Method: the effect of UVB radiation was investigated in vitro on keratinocytes by determining the release of the cytoplasm enzyme LDH (lactate dehydrogenase). This enzyme serves as a marker for cell damage.
To carry out the test, a defined medium (DMEM) containing fetal calf serum was inoculated with the keratinocytes and added to the plant extract (diluted with saline solution) 72 hours after inoculation.
The keratinocytes were then exposed to a UVB dose (50 mJ/cm^2-tubes: DUKE FL40E).
After incubation for another day ay 37° C./5% CO2. the LDH content in the supernatant phase was determined. The LDH (lactate dehydrogenase) content was spectrophotometrically determined by determining the NADH content during the LDH-catalyzed conversion of pyruvate to lactate by Bonnekoh's method (Bonnekoh B. et al.; Dermatol. Research; 282; 325-329; 1990).
The number of adhering keratinocytes was determined by a DNA assay based on the fluorescence measurement of fluorochromium that binds to cellular DNA using Desaulniers' method (Desaulniers D. et al.; Toxicol. in vitro; 12; 409-422; 1998) and a particle counter. Another test was carried out for comparison using a standard anti-inflammatory, acetyl salicyclic acid.

human fibroblasts = assay: Cell protecting effect against UVA on human fibroblasts cultivated in vitro (MDA level, protein content); assay type: cell-based; details: UVA 365 nm, + vitamin E, concentration not given
Experimental: The lipoperoxides are degraded to malonaldialdehyde which will crosslink many biological molecules, such as proteins and nuclein bases (enzyme inhibition or mutagenesis).
Method: To carry out these tests, a defined culture medium (DMEM) containing the fibroblasts was inoculated with foetal calf serum and added to the plant extract (in the defined medium containing 10% foetal serum) 72 hours after inoculation. Incubation was carried out at 37° C./5% CO2.
After incubation for 48 hours at 37° C./5% CO2, the culture medium was replaced by saline solution (physioloigcal NaCl solution) and the fibroblasts were exposed to a dose of UVA (365 nm, 20 J/cm^2; tubes: MAZDA FLUOR TFWN40).
After the exposure to UVA, the MDA level (malonaldialdehyde level) in the supernatant sodium chloride solution was quantitatively determined by reaction with thiobarbituric acid. The protein content was determined by Bradford's method using a Coomassie Brilliant Blue color (Bradford, Analytical Biochem., 72; 248-254; 1976).

Row | Protein content (human fibroblasts) | Compound | Content of LDH released (human keratinocytes; UVB alone = 100) | Number of keratinocytes (human keratinocytes; control without UV = 100) | MDA level (human fibroblasts; 20 J/cm^2)
1 |  | CC(=O)Oc1ccccc1C(=O)O [acetylsalicylic acid] | 3(2) | 76(5) | 
2 | 102(11) % versus control | vitamin E |  |  | 31(4) % versus control
